Source: the supplement of paper PMC10307832

Key:
Assay in all cases: relative viability (nuclei count vs DMSO), 5 days (fraction); higher = more cells survive
[1] = compound: CC(C)N(CCCNC(=O)Nc1ccc(C(C)(C)C)cc1)C[C@H]1O[C@@H](n2ccc3c(N)ncnc32)[C@H](O)[C@@H]1O + CCNC(=O)c1noc(-c2cc(C(C)C)c(O)cc2O)c1-c1ccc(CN2CCOCC2)cc1 [Luminespib] (partner 0.01 µM)
Procedure, shortened: (§1)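 Each reported value is a median over duplicate plates. It expresses relative viability: treated-well nuclei count divided by vehicle-well nuclei count. Lung cancer cell lines in 1536-well plates were dosed by pin tool a day after seeding, alone with one drug or with a fixed anchor-drug dose plus five library-drug doses (not always all listed) in √10 steps, and nuclei were counted after 5 days.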

[2] = compound: CC(C)N(CCCNC(=O)Nc1ccc(C(C)(C)C)cc1)C[C@H]1O[C@@H](n2ccc3c(N)ncnc32)[C@H](O)[C@@H]1O + O=C(c1cc(Cc2n[nH]c(=O)c3ccccc23)ccc1F)N1CCN(C(=O)C2CC2)CC1 [Olaparib] (partner 8 µM)
Procedure, shortened: as §1

Shikonin + Vorinostat = compound: CC(C)=CC[C@@H](O)C1=CC(=O)c2c(O)ccc(O)c2C1=O [Shikonin] + O=C(CCCCCCC(=O)Nc1ccccc1)NO [Vorinostat] (partner 1 µM)
Procedure, shortened: as §1

[3] = compound: CC(C)N(CCCNC(=O)Nc1ccc(C(C)(C)C)cc1)C[C@H]1O[C@@H](n2ccc3c(N)ncnc32)[C@H](O)[C@@H]1O + C[C@]1(O)C[C@@H](c2nc(-c3ccc4ccc(-c5ccccc5)nc4c3)c3c(N)nccn32)C1 [Linsitinib] (partner 1 µM)
Procedure, shortened: as §1

| Cell Line | relative viability ([1]; first compound 0.08 µM) | relative viability ([1]; first compound 0.253 µM) | relative viability ([1]; first compound 0.8 µM) | relative viability ([1]; first compound 2.53 µM) | relative viability ([1]; first compound 8 µM) | relative viability ([2]; first compound 0.08 µM) | relative viability ([2]; first compound 0.253 µM) | relative viability ([2]; first compound 0.8 µM) | relative viability ([2]; first compound 2.53 µM) | relative viability ([2]; first compound 8 µM) | relative viability (Shikonin + Vorinostat; first compound 0.01 µM) | relative viability (Shikonin + Vorinostat; first compound 0.1 µM) | relative viability (Shikonin + Vorinostat; first compound 0.3162 µM) | relative viability (Shikonin + Vorinostat; first compound 1 µM) | relative viability ([3]; first compound 0.08 µM) | relative viability ([3]; first compound 0.253 µM) | relative viability ([3]; first compound 0.8 µM) | relative viability ([3]; first compound 2.53 µM) | relative viability ([3]; first compound 8 µM) |
| --- | --- | --- | --- | --- | --- | --- | --- | --- | --- | --- | --- | --- | --- | --- | --- | --- | --- | --- | --- |
| NCI-H2342 | 0.856 | 0.576 | 0.722 | 0.675 | 0.724 | 0.4 | 0.463 | 0.419 | 0.431 | 0.444 | 0.872 | 0.722 | 0.78 | 0.764 | – | – | – | – | – |
| HCC-15 | 0.327 | 0.378 | 0.435 | 0.33 | 0.31 | 0.669 | 0.754 | 0.702 | 0.758 | 0.709 | 0.986 | 0.841 | 1.01 | 0.955 | 0.84 | 0.908 | 0.909 | 0.9 | 0.859 |
| A-427 | 0.889 | 0.875 | 1.03 | 0.884 | 0.817 | 0.71 | 0.779 | 0.613 | 0.771 | 0.702 | 0.862 | 0.938 | 0.93 | 0.931 | 1.18 | 1.12 | 1.1 | 1.12 | 1.14 |
| NCI-H23 | 0.224 | 0.23 | 0.199 | 0.233 | 0.21 | 0.334 | – | 0.266 | 0.345 | 0.28 | 0.611 | 0.75 | 0.59 | 0.625 | 0.57 | – | 0.556 | 0.577 | 0.592 |
| NCI-H1734 | 0.218 | 0.19 | 0.209 | 0.188 | 0.23 | 0.574 | 0.608 | 0.539 | 0.662 | 0.529 | 0.732 | 0.818 | 0.765 | 0.842 | 0.833 | 0.862 | 0.88 | 0.901 | 0.874 |
| NCI-H520 | 0.22 | 0.219 | 0.239 | 0.221 | 0.232 | 0.303 | 0.389 | 0.356 | 0.331 | 0.333 | 0.8 | 0.718 | 0.717 | 0.681 | 0.943 | 0.87 | 0.882 | 1 | 0.894 |
| RERF-LC-KJ | 1.2 | 1.22 | 1.33 | 1.18 | 1.19 | 0.887 | 1.04 | 0.843 | 1 | 0.963 | 0.709 | 0.836 | 0.718 | 0.757 | 0.85 | 0.93 | 0.895 | 0.897 | 0.794 |
| NCI-H1915 | 0.757 | 0.819 | 0.676 | 0.789 | 0.77 | 0.244 | 0.288 | 0.229 | 0.236 | 0.23 | 0.511 | 0.612 | 0.576 | 0.479 | 1.13 | 1.15 | 1.08 | 1.06 | 1.03 |
| NCI-H1666 | 0.963 | 0.987 | 1.07 | 0.999 | 0.941 | 0.704 | 0.755 | 0.828 | 0.739 | 0.698 | 1.07 | 0.96 | 0.966 | 1.12 | 0.794 | 0.925 | 0.859 | 0.85 | 0.781 |
| HCC-366 | – | – | – | – | – | 0.336 | 0.428 | 0.328 | 0.292 | 0.281 | 0.367 | 0.425 | 0.323 | 0.484 | 0.597 | 0.581 | 0.563 | 0.547 | 0.513 |
| SK-MES-1 | 0.693 | 0.723 | 0.929 | 0.872 | 0.717 | 0.83 | 0.811 | 0.734 | 0.713 | 0.662 | 1.13 | 1.33 | 1.12 | 1.26 | 1.06 | 1.17 | 1.11 | 1.09 | 1.06 |
| NCI-H1993 | 0.707 | – | – | 0.927 | 0.84 | 1.06 | – | 1.07 | 1.01 | 1.01 | 0.72 | 0.773 | 1.02 | 0.806 | 0.806 | 0.761 | 0.738 | 0.752 | 0.654 |
| NCI-H838 | 0.366 | 0.273 | 0.307 | 0.331 | 0.286 | 0.75 | 0.829 | 0.794 | 0.812 | 0.728 | 0.704 | 0.753 | 0.775 | 0.582 | 0.938 | 0.952 | 0.99 | 1.01 | 0.875 |
| SK-LU-1 | 0.193 | 0.202 | 0.182 | 0.252 | 0.191 | 0.424 | 0.448 | 0.516 | 0.552 | 0.469 | 0.844 | 0.878 | 0.853 | 0.704 | 0.94 | 1.33 | 1.17 | 1.41 | 0.953 |
| NCI-H1623 | 0.495 | 0.472 | 0.394 | 0.589 | 0.547 | – | – | – | – | – | – | – | – | – | – | – | – | – | – |
| Calu-6 | – | – | – | – | – | 0.521 | 0.53 | 0.547 | 0.552 | 0.57 | – | – | – | – | 1 | 0.933 | 0.871 | 0.988 | 0.858 |
